Data taken from patent publication EP0407583A1, “DERIVATIVES OF DICHLOR[…] ACYLAMIDO[…] AND INSECTICIDAL, FU[…] HEMATOCIDAL PREPARATIONS BASED ON THEM” (priority 1989, dated 1990).

Tests used:
Botrytis allii [1] = test: Inhibition of phytopathogenic fungi growth, laboratory test on potato-dextrose agar; assay type: cell-based; conditions: active principle 0.01 % by mass in potato-dextrose agar
Description: (§1) A fungicidal composition based on this compound was prepared in the form of a 0.01% solution thereof in distilled water. A fungicidal action of the composition, according to the invention, was tested for inhibition of vegetative fungi growth such as Fusarium moniliforme, Ventura inaequalis, Rhyzoctonia ciolaceae, Botrytis cinereae, Verticillium albo-atrum, Diplodia zeae, Fusarium oxysporum, Rhoma betae, Rhyzoctonia aderholdii, Aspergillus niger, Alternaria sobani, Botrytis allii, Aspergillus fumigatis, Fusarium culmorum, Penicillium cyclopium affecting potato, sugar beet, cotton seeds either in laboratory or field conditions. For testing it to the Petri dishes containing potato-dextrose agar the composition of the invention was.added at the concentration of an active principle of 0.01 % by mass. The Petri dishes containing the same agar culture were inoculated with a mycelium of phytopathogenic fungi. For control dishes the phytopathogenic fungi were inoculated on agar without using the composition of the invention. A fungicidal effect of the composition, according to the invention was tested in comparison with the known fungicidal compositions based on 2,3-dichloro-1,4-naphthoquinone, zinc N,N'-ethylene-bis-dithiocarbamate and tetramethylthiuram disulphide.

Fusarium oxysporum [2] = test: as above; assay type: cell-based; conditions: active principle 0.01 % by mass in potato-dextrose agar
Description: as §1

Aspergillus niger [3] = test: as above; assay type: cell-based; conditions: active principle 0.01 % by mass in potato-dextrose agar
Description: as §1

Rhyzoctonia violaceae [4] = test: as above; assay type: cell-based; conditions: active principle 0.01 % by mass in potato-dextrose agar
Description: as §1

Fusarium culmorum [5] = test: as above; assay type: cell-based; conditions: active principle 0.01 % by mass in potato-dextrose agar
Description: as §1

Verticillium albo-atrum [6] = test: as above; assay type: cell-based; conditions: active principle 0.01 % by mass in potato-dextrose agar
Description: as §1

Alternaria sobani [7] = test: as above; assay type: cell-based; conditions: active principle 0.01 % by mass in potato-dextrose agar
Description: as §1

Rhyzoctonia aderholdii [8] = test: as above; assay type: cell-based; conditions: active principle 0.01 % by mass in potato-dextrose agar
Description: as §1

Penicillium cyclopium [9] = test: as above; assay type: cell-based; conditions: active principle 0.01 % by mass in potato-dextrose agar
Description: as §1

Botrytis cinereae [10] = test: as above; assay type: cell-based; conditions: active principle 0.01 % by mass in potato-dextrose agar
Description: as §1

Aspergillus fumigatis [11] = test: as above; assay type: cell-based; conditions: active principle 0.01 % by mass in potato-dextrose agar
Description: as §1

Diplodia zeae [12] = test: as above; assay type: cell-based; conditions: active principle 0.01 % by mass in potato-dextrose agar
Description: as §1

Venturia inaequalis [13] = test: as above; assay type: cell-based; conditions: active principle 0.01 % by mass in potato-dextrose agar
Description: as §1

Rhoma betae [14] = test: as above; assay type: cell-based; conditions: active principle 0.01 % by mass in potato-dextrose agar
Description: as §1

Fusarium moniliforme [15] = test: as above; assay type: cell-based; conditions: active principle 0.01 % by mass in potato-dextrose agar
Description: as §1

Solubility (qualitative) = conditions: water, alcohols, acetone
Botrytis allii [16] = test: Inhibition of phytopathogenic fungi, field test on affected potato plants; assay type: in vivo; conditions: 5 m^2 plots of affected potato plants sprayed
Text: (§2) For field tests the plots of 5 m^2 in size with potato plants affected by Fusarium moniliforme, Venturia inaequalis, Rhyzoctonia violaceae, Botrytis cinereae, Verticillium albo-atrum, Diplodia zeae, Fusarium oxysporum, Rhoma betae, Rhyzoctonia aderholdii, Aspergillus niger, Alternaria sobani, Botrytis allii, Aspergillus fumigatis, Fusarium culmorum, Penicillium cyclopium were sprayed with the fungicide of the invention. To compare, the similar plots of the affected potato plants were aprayed with the known compositions indicated above.

Fusarium oxysporum [17] = test: as above; assay type: in vivo; conditions: 5 m^2 plots of affected potato plants sprayed
Text: as §2

Aspergillus niger [18] = test: as above; assay type: in vivo; conditions: 5 m^2 plots of affected potato plants sprayed
Text: as §2

Rhyzoctonia violaceae [19] = test: as above; assay type: in vivo; conditions: 5 m^2 plots of affected potato plants sprayed
Text: as §2

Fusarium culmorum [20] = test: as above; assay type: in vivo; conditions: 5 m^2 plots of affected potato plants sprayed
Text: as §2

Verticillium albo-atrum [21] = test: as above; assay type: in vivo; conditions: 5 m^2 plots of affected potato plants sprayed
Text: as §2

Alternaria sobani [22] = test: as above; assay type: in vivo; conditions: 5 m^2 plots of affected potato plants sprayed
Text: as §2

Rhyzoctonia aderholdii [23] = test: as above; assay type: in vivo; conditions: 5 m^2 plots of affected potato plants sprayed
Text: as §2

Penicillium cyclopium [24] = test: as above; assay type: in vivo; conditions: 5 m^2 plots of affected potato plants sprayed
Text: as §2

Botrytis cinereae [25] = test: as above; assay type: in vivo; conditions: 5 m^2 plots of affected potato plants sprayed
Text: as §2

Aspergillus fumigatis [26] = test: as above; assay type: in vivo; conditions: 5 m^2 plots of affected potato plants sprayed
Text: as §2

Diplodia zeae [27] = test: as above; assay type: in vivo; conditions: 5 m^2 plots of affected potato plants sprayed
Text: as §2

Venturia inaequalis [28] = test: as above; assay type: in vivo; conditions: 5 m^2 plots of affected potato plants sprayed
Text: as §2

Rhoma betae [29] = test: as above; assay type: in vivo; conditions: 5 m^2 plots of affected potato plants sprayed
Text: as §2

Fusarium moniliforme [30] = test: as above; assay type: in vivo; conditions: 5 m^2 plots of affected potato plants sprayed
Text: as §2

| SMILES | Inhibition of growth of phytopathogenic fungi colonies, % Botrytis allii test laboratory (Botrytis allii [1]) | Inhibition of growth of phytopathogenic fungi colonies, % Fusarium oxysporum test laboratory (Fusarium oxysporum [2]) | Inhibition of growth of phytopathogenic fungi colonies, % Aspergillus niger test laboratory (Aspergillus niger [3]) | Inhibition of growth of phytopathogenic fungi colonies, % Rhyzoctonia violaceae test laboratory (Rhyzoctonia violaceae [4]) | Inhibition of growth of phytopathogenic fungi colonies, % Fusarium culmorum Tests laboratory (Fusarium culmorum [5]) | Inhibition of growth of phytopathogenic fungi colonies, % Verticillium albo--atrum test laboratory (Verticillium albo-atrum [6]) | Inhibition of growth of phytopathogenic fungi colonies, % Alternaria sobani test laboratory (Alternaria sobani [7]) | Inhibition of growth of phytopathogenic fungi colonies, % Rhyzoctonia aderholdii test laboratory (Rhyzoctonia aderholdii [8]) | Inhibition of growth of phytopathogenic fungi colonies, % Penicillium cyclopium Tests laboratory (Penicillium cyclopium [9]) | Inhibition of growth of phytopathogenic fungi colonies, % Botrytis cinereae test laboratory (Botrytis cinereae [10]) | Inhibition of growth of phytopathogenic fungi colonies, % Aspergillus fumigatis Tests laboratory (Aspergillus fumigatis [11]) | Inhibition of growth of phytopathogenic fungi colonies, % Diplodia zeae test laboratory (Diplodia zeae [12]) | Inhibition of growth of phytopathogenic fungi colonies, % Venturia inaequalis test laboratory (Venturia inaequalis [13]) | Inhibition of growth of phytopathogenic fungi colonies, % Rhoma betae test laboratory (Rhoma betae [14]) | Inhibition of growth of phytopathogenic fungi colonies, % Fusatium monili-forme test laboratory (Fusarium moniliforme [15]) | solubility (Solubility (qualitative)) | Inhibition of growth of phytopathogenic fungi colonies, % Botrytis allii test field (Botrytis allii [16]) | Inhibition of growth of phytopathogenic fungi colonies, % Fusarium oxysporum test field (Fusarium oxysporum [17]) | Inhibition of growth of phytopathogenic fungi colonies, % Aspergillus niger test field (Aspergillus niger [18]) | Inhibition of growth of phytopathogenic fungi colonies, % Rhyzoctonia violaceae test field (Rhyzoctonia violaceae [19]) | further results |
| --- | --- | --- | --- | --- | --- | --- | --- | --- | --- | --- | --- | --- | --- | --- | --- | --- | --- | --- | --- | --- | --- |
| COP(=O)(NC(=O)C(Cl)(Cl)CCl)Nc1ccccc1 (stereo not drawn) [Example 11, methyl α, α , β-trichloropropyonylamidophosphate monoanilide] | 78% | 62% | 100% | 62% | 100% | 56% | 69% | 100% | 95% | 43% | 93% | 100% | 54% | 67% | 39% | soluble in water, alcohols, acetone | 78% | 60% | 96% | 60% | Inhibition of growth of phytopathogenic fungi colonies, % Fusarium culmorum Tests field (Fusarium culmorum [20]): 98%; Inhibition of growth of phytopathogenic fungi colonies, % Verticillium albo--atrum test field (Verticillium albo-atrum [21]): 54%; Inhibition of growth of phytopathogenic fungi colonies, % Alternaria sobani test field (Alternaria sobani [22]): 66%; Inhibition of growth of phytopathogenic fungi colonies, % Rhyzoctonia aderholdii test field (Rhyzoctonia aderholdii [23]): 100%; Inhibition of growth of phytopathogenic fungi colonies, % Penicillium cyclopium Tests field (Penicillium cyclopium [24]): 90%; Inhibition of growth of phytopathogenic fungi colonies, % Botrytis cinereae test field (Botrytis cinereae [25]): 39%; Inhibition of growth of phytopathogenic fungi colonies, % Aspergillus fumigatis Tests field (Aspergillus fumigatis [26]): 93%; Inhibition of growth of phytopathogenic fungi colonies, % Diplodia zeae test field (Diplodia zeae [27]): 98%; Inhibition of growth of phytopathogenic fungi colonies, % Venturia inaequalis test field (Venturia inaequalis [28]): 52%; Inhibition of growth of phytopathogenic fungi colonies, % Rhoma betae test field (Rhoma betae [29]): 65%; Inhibition of growth of phytopathogenic fungi colonies, % Fusatium monili-forme test field (Fusarium moniliforme [30]): 38% |
| O=C(NP(=O)(Nc1ccc(Br)cc1)Nc1ccc(Br)cc1)c1ccc(Br)cc1 [Example 15] | 99% | 83% | 100% | 100% | 100% | 100% | 100% | 100% | 100% | 100% | 88% | 100% | 100% | 100% | 100% | soluble in water, alcohols, acetone | 96% | 81% | 98% | 99% | Inhibition of growth of phytopathogenic fungi colonies, % Fusarium culmorum Tests field (Fusarium culmorum [20]): 100%; Inhibition of growth of phytopathogenic fungi colonies, % Verticillium albo--atrum test field (Verticillium albo-atrum [21]): 100%; Inhibition of growth of phytopathogenic fungi colonies, % Alternaria sobani test field (Alternaria sobani [22]): 98%; Inhibition of growth of phytopathogenic fungi colonies, % Rhyzoctonia aderholdii test field (Rhyzoctonia aderholdii [23]): 99%; Inhibition of growth of phytopathogenic fungi colonies, % Penicillium cyclopium Tests field (Penicillium cyclopium [24]): 89%; Inhibition of growth of phytopathogenic fungi colonies, % Botrytis cinereae test field (Botrytis cinereae [25]): 98%; Inhibition of growth of phytopathogenic fungi colonies, % Aspergillus fumigatis Tests field (Aspergillus fumigatis [26]): 80%; Inhibition of growth of phytopathogenic fungi colonies, % Diplodia zeae test field (Diplodia zeae [27]): 98%; Inhibition of growth of phytopathogenic fungi colonies, % Venturia inaequalis test field (Venturia inaequalis [28]): 98%; Inhibition of growth of phytopathogenic fungi colonies, % Rhoma betae test field (Rhoma betae [29]): 98%; Inhibition of growth of phytopathogenic fungi colonies, % Fusatium monili-forme test field (Fusarium moniliforme [30]): 99% |
